Assay results published in patent US10626103B2, “Inhibitor of lysine specific demethylase-1” (CELGENE QUANTICEL RESEARCH, INC., priority 2014, dated 2020).

Tests used:
full-length human LSD1 = full-length human LSD1 (Homo sapiens (Human), UniProt O60341); experiment: In vitro enzyme inhibition assay LSD-1 (TR-FRET); assay type: biochemical; details: H3K4me1-biotin peptide
Method: This assay determines the ability of a test compound to inhibit LSD1 demethylase activity.
The enzymatic assay of LSD1 activity is based on Time Resolved-Fluorescence Resonance Energy Transfer (TR-FRET) detection.
Plates were read by EnVision Multilabel Reader in TR-FRET mode (excitation at 320 nm, emission at 615 nm and 665 nm) after 1 hour incubation at room temperature.
The ability of the compounds disclosed herein to inhibit LSD1 activity was quantified and the respective IC50 value was determined.

[1] = tested on: CD11b expression in THP-1 (AML) cells; experiment: LSD1 CD11b cellular assay (flow cytometry); assay type: cell-based; details: Homo sapiens, 96 h, THP-1 cells, 4 days
Method: To analyze LSD1 inhibitor efficacy in cells, a CDL11b flow cytometry assay was performed. LSD1 inhibition induces CD11b expression in THP-1 (AML) cells which can be measured by flow cytometry. […] LSD 1 test compounds were serially diluted in DMSO. The dilutions were added to each well accordingly to a final concentration of 0.2% DMSO. The cells were incubated at 37 degrees Celsius in 5% CO2 for 4 days. 250 μL of each well was transferred to a well in a 96 well round bottom plate. The plate was centrifuged at 1200 rpm at 4 degrees Celsius in a Beckman Coulter Alegra 6KR centrifuge for 5 minutes. The media was removed leaving the cells at the bottom of the wells. The cells were washed in 100 μL cold HBSS (Hank's Balanced Salt Solution) plus 2% BSA (Bovine Serum Albumin) solution and centrifuged at 1200 rpm at 4 degrees Celsius for 5 minutes. The wash was removed. […] The cells were centrifuged and washed two times in 100 μl HBSS plus 2% BSA. After the final spin the cells were resuspended in 100 μL HBSS plus 2% BSA containing 1 ug/mL DAPI (4′,6-diamidino-2-phenylindole). The cells were then analyzed by flow cytometry in a BD FACSAria machine. Cells were analyzed for CD11b expression. The percent of CD11b expressing cells for each inhibitor concentration was used to determine an IC50 curve for each compound analyzed.

Row | IC50 (full-length human LSD1) [µM] | IC50 [1] [µM] | Structure (SMILES)
1 | < 0.1 | < 0.1 | Cn1nc2ccc(-n3c(-c4ccc(C#N)c(F)c4)nc(C(=O)N4CCC[C@@H](N)C4)c3F)cc2c1Cl [Example 61, 4-[4-[(3R)-3-Aminopiperidine-1-carbonyl]-1-(3-chloro-2-methylindazol-5-yl)-5-fluoroimidazol-2-yl]-2-fluorobenzonitrile]
2 | < 0.1 | < 0.1 | CN[C@H]1CCN(C(=O)c2cn(-c3ccc(OC)c(F)c3)c(-c3ccc(C#N)c(F)c3)n2)C1 [Example 65, 2-Fluoro-4-[1-(3-fluoro-4-methoxyphenyl)-4-[(3S)-3-(methylamino)pyrrolidine-1-carbonyl]imidazol-2-yl]benzonitrile]
3 | < 0.1 | < 0.1 | COc1ccc(-n2c(-c3ccc(C#N)c(F)c3)nc(C(=O)N3CCC[C@@H](N)C3)c2Cl)cc1F [Example 66, 4-[4-[(3R)-3-Aminopiperidine-1-carbonyl]-5-chloro-1-(3-fluoro-4-methoxyphenyl)imidazol-2-yl]-2-fluorobenzonitrile]
4 | < 0.1 | < 0.1 | CN[C@H]1CCN(C(=O)c2nc(-c3ccc(C#N)c(F)c3)n(-c3ccc(OC)c(F)c3)c2F)C1 [Example 68, 2-Fluoro-4-[5-fluoro-1-(3-fluoro-4-methoxyphenyl)-4-[(3S)-3-(methylamino)pyrrolidine-1-carbonyl]imidazol-2-yl]benzonitrile]
5 | < 0.1 | < 0.1 | CN[C@H]1CCN(C(=O)c2nc(-c3ccc(C#N)c(F)c3)n(-c3ccc(OC)cc3)c2C)C1 [Example 69, 2-Fluoro-4-[1-(4-methoxyphenyl)-5-methyl-4-[(3S)-3-(methylamino)pyrrolidine-1-carbonyl]imidazol-2-yl]benzonitrile]
6 | < 0.1 | < 0.1 | CN[C@H]1CCN(C(=O)c2cn(-c3ccc(OC)cc3)c(-c3ccc(C#N)c(F)c3)n2)C1 [Example 71, 2-Fluoro-4-[1-(4-methoxyphenyl)-4-[(3S)-3-(methylamino)pyrrolidine-1-carbonyl]imidazol-2-yl]benzonitrile]
7 | < 0.1 | < 0.1 | CN[C@@H]1CCCN(C(=O)c2cn(-c3ccc(OC)cc3)c(-c3ccc(C#N)c(F)c3)n2)C1 [Example 72, 2-Fluoro-4-[1-(4-methoxyphenyl)-4-[(3R)-3-(methylamino)piperidine-1-carbonyl]imidazol-2-yl]benzonitrile]
8 | < 0.1 | < 0.1 | CN[C@H]1CCN(C(=O)c2nc(-c3ccc(C#N)c(F)c3)n(-c3ccc(OC)cc3)c2F)C1 [Example 73, 2-Fluoro-4-[5-fluoro-1-(4-methoxyphenyl)-4-[(3S)-3-(methylamino)pyrrolidine-1-carbonyl]imidazol-2-yl]benzonitrile]
9 | < 0.1 | < 0.1 | CN[C@@H]1CCCN(C(=O)c2nc(-c3ccc(C#N)c(F)c3)n(-c3ccc(OC)cc3)c2F)C1 [Example 74, 2-Fluoro-4-[5-fluoro-1-(4-methoxyphenyl)-4-[(3R)-3-(methylamino)piperidine-1-carbonyl]imidazol-2-yl]benzonitrile]
10 | < 0.1 | < 0.1 | Cn1cc2cc(-n3c(-c4ccc(C#N)c(F)c4)nc(C(=O)N4CCC[C@@H](N)C4)c3Cl)ccc2n1 [Example 75, 4-[4-[(3R)-3-Aminopiperidine-1-carbonyl]-5-chloro-1-(2-methylindazol-5-yl)imidazol-2-yl]-2-fluorobenzonitrile]
11 | < 0.1 | < 0.1 | Cn1cc2cc(-n3c(-c4ccc(C#N)c(F)c4)nc(C(=O)N4CCC[C@@H](N)C4)c3F)ccc2n1 [Example 77, 4-[4-[(3R)-3-Aminopiperidine-1-carbonyl]-5-fluoro-1-(2-methylindazol-5-yl)imidazol-2-yl]-2-fluorobenzonitrile]
12 | < 0.1 | < 0.1 | Cc1c(C(=O)N2CC[C@H](N)C2)nc(-c2ccc(C#N)c(F)c2)n1-c1ccc(C2CC2)nc1 [Example 79, 4-[4-[(3S)-3-Aminopyrrolidine-1-carbonyl]-1-(6-cyclopropylpyridin-3-yl)-5-methylimidazol-2-yl]-2-fluorobenzonitrile]
